According to patent publication US11051515B2, “3-acyl-benzamides and their use as herbicides” (Bayer Aktiengesellschaft, priority 2017, dated 2021):

Key:
[1] = system: ALOMY; assay: Pre-emergence action against ALOMY; assay type: in vivo, Alopecurus myosuroides; settings: dosage 320 g/ha; pre-emergence; scored visually after 3 weeks vs untreated controls; 100% = plants have died, 0% = like control plants
How it was run: (§1)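 Seeds sown in sandy loam in wood-fiber pots and covered with soil. Greenhouse growth; visual damage scored after 3 weeks versus untreated controls (100% = dead, 0% = like control).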

[2] = system: AVEFA; assay: Pre-emergence action against AVEFA; assay type: in vivo, Avena fatua; settings: dosage 320 g/ha, scored visually after 3 weeks vs untreated controls
Excerpt: (§2) Seeds of monocotyledonous and dicotyledonous weed plants and crop plants are laid out in sandy loam soil in wood-fiber pots and covered with soil. The compounds of the invention, formulated in the form of wettable powders (WP) or as emulsion concentrates (EC), are then applied to the surface of the covering soil in the form of an aqueous suspension or emulsion at a water application rate equating to […], with addition of 0.2% wetting agent. After the treatment, the pots are placed in a greenhouse and kept under good growth conditions for the trial plants. The damage to the test plants is scored visually after a test period of 3 weeks by comparison with untreated controls (herbicidal activity in percent (%): 100% activity=the plants have died, 0% activity=like control plants).

[3] = system: CYPES; assay: Pre-emergence action against CYPES; assay type: in vivo, Cyperus esculentus; settings: pre-emergence, dosage 320 g/ha, scored visually after 3 weeks vs untreated controls
Excerpt: as §2

[4] = system: SETVI; assay: Pre-emergence action against SETVI; assay type: in vivo, Setaria viridis; settings: pre-emergence, dosage 320 g/ha, scored visually after 3 weeks vs untreated controls
How it was run: as §1

[5] = system: ABUTH; assay: Pre-emergence action against ABUTH; assay type: in vivo, Abutilon theophrasti; settings: pre-emergence, dosage 320 g/ha, scored visually after 3 weeks vs untreated controls
How it was run: as §1

[6] = system: AMARE; assay: Pre-emergence action against AMARE; assay type: in vivo, Amaranthus retroflexus; settings: pre-emergence, dosage 320 g/ha, scored visually after 3 weeks vs untreated controls
How it was run: as §1

[7] = system: MATIN; assay: Pre-emergence action against MATIN; assay type: in vivo, Matricaria inodora; settings: Dosage 320 g/ha, pre-emergence
How it was run: as §1

[8] = system: PHBPU; assay: Pre-emergence action against PHBPU; assay type: in vivo, Pharbitis purpurea; settings: Dosage 320 g/ha, pre-emergence
Excerpt: as §2

[9] = system: STEME; assay: Pre-emergence action against STEME; assay type: in vivo, Stellaria media; settings: Dosage 320 g/ha, pre-emergence
How it was run: as §1

[10] = system: VIOTR; assay: Pre-emergence action against VIOTR; assay type: in vivo, Viola tricolor; settings: Dosage 320 g/ha, pre-emergence
How it was run: as §1

[11] = system: VERPE; assay: Pre-emergence action against VERPE; assay type: in vivo, Veronica persica; settings: Dosage 320 g/ha, pre-emergence
How it was run: as §1

[12] = system: CYPES; assay: Post-emergence action against CYPES; assay type: in vivo, Cyperus esculentus; settings: post-emergence, dosage 80 g/ha, visual assessment about 3 weeks after treatment vs untreated controls
Procedure: (§3) Seeds of monocotyledonous and dicotyledonous weed and crop plants are laid out in sandy loam soil in wood-fiber pots, covered with soil and cultivated in a greenhouse under good growth conditions. 2 to 3 weeks after sowing, the test plants are treated at the one-leaf stage. The compounds of the invention, formulated in the form of wettable powders (WP) or as emulsion concentrates (EC), are then sprayed onto the green parts of the plants in the form of an aqueous suspension or emulsion at a water application rate equating to […], with addition of 0.2% wetting agent. After the test plants have been left to stand in the greenhouse under optimal growth conditions for about 3 weeks, the action of the preparations is assessed visually in comparison to untreated controls (herbicidal action in percent (%): 100% activity=the plants have died, 0% activity=like control plants). […] At the same time, inventive compounds leave Gramineae crops such as barley, wheat, rye, millet/Sorghum, corn or rice virtually undamaged when applied post-emergence, even at high active ingredient dosages. In addition, some substances are also harmless to dicotyledonous crops such as soya, cotton, oilseed rape, sugar beet or potatoes. Some of the compounds according to the invention have high selectivity and are therefore suitable for controlling unwanted vegetation in agricultural crops by the post-emergence method. The data of Tables B18 to B34 below illustrate, in an exemplary manner, the […] herbicidal action of the compounds according to the invention, the herbicidal activity being stated in percent.

[13] = system: ECHCG; assay: Post-emergence action against ECHCG; assay type: in vivo, Echinochloa crus-galli; settings: post-emergence, dosage 80 g/ha, visual assessment about 3 weeks after treatment vs untreated controls
How it was run: (§4)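 Weeds grown in sandy loam in greenhouse, treated at one-leaf stage (2–3 weeks after sowing) with WP or EC formulations sprayed as aqueous suspension/emulsion at 600 to […] water with 0.2% wetting agent. Visual rating after about 3 weeks versus untreated controls, as % herbicidal action (100% = plants dead, 0% = like control).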

[14] = system: SETVI; assay: Post-emergence action against SETVI; assay type: in vivo, Setaria viridis; settings: post-emergence, dosage 80 g/ha, visual assessment about 3 weeks after treatment vs untreated controls
Procedure: as §3

[15] = system: ABUTH; assay: Post-emergence action against ABUTH; assay type: in vivo, Abutilon theophrasti; settings: post-emergence, dosage 80 g/ha, visual assessment about 3 weeks after treatment vs untreated controls
How it was run: as §4

[16] = system: AMARE; assay: Post-emergence action against AMARE; assay type: in vivo, Amaranthus retroflexus; settings: post-emergence, dosage 80 g/ha, visual assessment about 3 weeks after treatment vs untreated controls
How it was run: as §4

[17] = system: MATIN; assay: Post-emergence action against MATIN; assay type: in vivo, Matricaria inodora; settings: post-emergence, dosage 80 g/ha, visual assessment about 3 weeks after treatment vs untreated controls
How it was run: as §4

[18] = system: PHBPU; assay: Post-emergence action against PHBPU; assay type: in vivo, Pharbitis purpurea; settings: post-emergence, dosage 80 g/ha
How it was run: as §4

[19] = system: STEME; assay: Post-emergence action against STEME; assay type: in vivo, Stellaria media; settings: post-emergence, dosage 80 g/ha
How it was run: as §4

[20] = system: VIOTR; assay: Post-emergence action against VIOTR; assay type: in vivo, Viola tricolor; settings: post-emergence, dosage 80 g/ha
How it was run: as §4

[21] = system: VERPE; assay: Post-emergence action against VERPE; assay type: in vivo, Veronica persica; settings: dosage 80 g/ha
How it was run: as §4

[22] = system: ECHCG; assay: Pre-emergence action against ECHCG; assay type: in vivo, Echinochloa crus-galli; settings: pre-emergence, dosage 320 g/ha, scored visually after 3 weeks vs untreated controls
How it was run: as §1

| SMILES | Pre-emergence action against ALOMY (herbicidal activity in percent) [1] | Pre-emergence action against AVEFA (herbicidal activity) [2] | Pre-emergence action against CYPES (herbicidal activity) [3] | SETVI (Table B8, pre-emergence herbicidal activity) [4] | Pre-emergence action against ABUTH (herbicidal activity) [5] | Pre-emergence action against AMARE (herbicidal activity) [6] | Pre-emergence action against MATIN [7] | Pre-emergence action against PHBPU [8] | Pre-emergence action against STEME [9] | Pre-emergence action against VIOTR [10] | Pre-emergence action against VERPE [11] | Post-emergence action against CYPES (herbicidal action in percent) [12] | Post-emergence action against ECHCG (herbicidal action in percent) [13] | Post-emergence action against SETVI (herbicidal action in percent) [14] | Post-emergence action against ABUTH (herbicidal action in percent) [15] | Post-emergence action against AMARE (herbicidal action in percent) [16] | Post-emergence action against MATIN (herbicidal action in percent) [17] | Post-emergence action against PHBPU [18] | Post-emergence action against STEME [19] | Post-emergence action against VIOTR [20] | other results |
| --- | --- | --- | --- | --- | --- | --- | --- | --- | --- | --- | --- | --- | --- | --- | --- | --- | --- | --- | --- | --- | --- |
| CCCn1nnnc1NC(=O)c1ccc(C(F)(F)F)c(C(=O)C2CC2)c1OC [3-50] | 100% | 100% | 90% | 100% | 100% | 100% | 100% | 80% | 100% | 100% | 100% | 80% | 100% | 100% | 100% | 100% | 100% | 100 | 100 | 100 | Post-emergence action against VERPE [21]: 100 |
| CCCn1nnnc1NC(=O)c1ccc(I)c(C(C)=O)c1Cl [3-192] | 90% | 90% | 100% | 100% | 100% | 100% | 100% | 100% | 100% | 100% |  | 80% | 100% | 100% | 100% | 80% | 100% | 80 | 100 | 100 | Pre-emergence action against ECHCG (herbicidal activity) [22]: 100% |
| CCCn1nnnc1NC(=O)c1ccc(C(F)(F)F)c(C(=O)C2CC2)c1Br [3-197] | 90% | 90% | 80% | 100% | 100% | 100% | 100% | 90% | 100% | 100% | 100% | 90% | 90% | 90% | 90% | 100% | 90% | 100 | 100 | 100 | Pre-emergence action against ECHCG (herbicidal activity) [22]: 100%; Post-emergence action against VERPE [21]: 80 |
